Assay results as given in US20150031102A1, “METHODS AND COMPOSITIONS FOR ENHANCED PRODUCTION OF BUTANOL BY CLOSTRIDIA” (Butrolix LLC, priority 2012, published 2015).

Tested on: Clostridium acetobutylicum strain ATCC 824
Assay: Sequential batch transfer in 24-well culture plates (butanol, residual glucose, butanol yield and productivity)
Type: cell-based
Settings: after 96 hours of culture; for Residual glucose concentration: initial glucose 60 g/L; for Butanol: Experiment 1
Protocol: Each well contained 1.5 mL of growth medium. Peptide was added to each well at the indicated concentration (0, 25, 50, and 100 nM). Every 24 hours fresh medium and peptide treatment were added to a new column of wells then 1.5 μL of the previous day culture was transferred to the new well. Wells were harvested for glucose and butanol analysis after 96 hours of growth. Transfers 1, 4, 7, 10, 13, 16, […].
Briefly, Clostridium spores were germinated in a suitable growth medium for 18-24 hours then […] was transferred to 1.5 mL of fresh medium in each of four wells on a 24-well culture plate. Three of the wells had been treated with 25 nM, 50 nM and 100 nM of peptide, respectively while the fourth well was untreated. Thereafter, every 24 hours […] of each subculture was transferred to 1.5 mL of fresh medium that contained the same peptide treatment or no treatment. Transfers of successive subcultures were done for 24 days, and each subculture was grown for 96 hours before being harvested. Culture supernatants were recovered following centrifugation and were analyzed for butanol and residual glucose concentrations. Determination of optimum peptide treatment levels was based on a graphical comparison of the concentration of butanol in each of the four culture wells for sequential transfers 1, 4, 7, 10, 13, 16, 19, 22 and 24.
Clostridium acetobutylicum strain ATCC 824 was used in all experiments and the growth medium used for sequential batch transfer, time course, and continuous culture experiments contained yeast extract, casamino acids, L-cysteine, L-asparagine, phosphate buffer, trace minerals, and 6% glucose. What are believed to be quorum-sensing peptides that were used in the experiments were chemically synthesized peptides SEQ ID NO: 143 (amino acid sequence: SYPGWSW) and SEQ ID NO: 144 (amino acid sequence: ILILISG). Routine growth of the bacteria as well as the sequential batch and time course experiments were conducted in a Form a Scientific Model 1029 anaerobic gas chamber at 32° C. Continuous cultures were performed at 32° C. using duplicate New Brunswick Scientific BioFlo 3000 apparati with a dilution rate of 0.01 volume per hour, 75 rpm agitation, and nitrogen gas sparging. Optical density of culture samples was measured at 600 nm in a Beckman DU 600 series spectrophotometer and glucose was analyzed using a YSI Model 2700 Select Biochemistry Analyzer with internal glucose calibration. Butanol concentrations were determined by measuring experimental and standard samples using a Varian Saturn 3 Gas Chromatograph/Mass Spectrometer and calculating butanol concentrations using standard curves.
(§1) Sequential batch transfer experiments were carried out in 24-well culture plates that contained 1.5 mL of medium per well. Peptide was added to each well at the indicated concentrations of 0 nM (control), 25 nM, 50 nM, or 100 nM. Every 24 hours, fresh medium and peptide treatments were added to a new column of wells. Then, 1.5 uL of the previous day culture was transferred to the new well. Wells were harvested for glucose and butanol analysis after 96 hours of growth; transfers 1, 4, 7, 10, 13, 16, 19, 22, and 24 were analyzed. Two representative experiments are shown in Tables 30 and 31 and FIGS. 14 and 15.
as §1, with “32” for “30”, “33” for “31”, “16” for “14”, “17.” for “15.”

[1] = 25 nM peptide, transfer 1, Expt. 2 (repeat)
[2] = 25 nM peptide, transfer 4, Expt. 2 (repeat)
[3] = 25 nM peptide, transfer 7, Expt. 2 (repeat)
[4] = 25 nM peptide, transfer 10, Expt. 2 (repeat)
[5] = 25 nM peptide, transfer 13, Expt. 2 (repeat)
[6] = 25 nM peptide, transfer 16, Expt. 2 (repeat)
[7] = 25 nM peptide, transfer 19, Expt. 2 (repeat)
[8] = 25 nM peptide, transfer 22, Expt. 2 (repeat)
[9] = 25 nM peptide, transfer 24, Expt. 2 (repeat)
[10] = 25 nM, transfer 1, first experiment
[11] = 25 nM, transfer 4, first experiment
[12] = 25 nM, transfer 7, first experiment
[13] = 25 nM, transfer 10, first experiment
[14] = 25 nM, transfer 13, first experiment
[15] = 25 nM, transfer 16, first experiment

With SYPGWSW [peptide SEQ ID NO: 143] the Butanol concentration [1] was 0.75 g/L, the Butanol productivity [1] was 0.01 g butanol/L-h and the Butanol yield [1] was 0.01 g butanol/g/glucose. The Residual glucose concentration [1] was 49.0 g/L, the Butanol concentration [2] was 1.40 g/L and the Butanol productivity [2] was 0.01 g butanol/L-h. The Butanol yield [2] was 0.02 g butanol/g/glucose, the Residual glucose concentration [2] was 43.5 g/L and the Butanol concentration [3] was 1.83 g/L. The Butanol productivity [3] was 0.02 g butanol/L-h, the Butanol yield [3] was 0.03 g butanol/g/glucose and the Residual glucose concentration [3] was 48.9 g/L. For the same substance, the Butanol concentration [4] was 2.93 g/L, the Butanol productivity [4] was 0.03 g butanol/L-h and the Butanol yield [4] was 0.05 g butanol/g/glucose. The Residual glucose concentration [4] was 43.9 g/L, the Butanol concentration [5] was 2.89 g/L and the Butanol productivity [5] was 0.03 g butanol/L-h. It also gave a Butanol yield [5] of 0.05 g butanol/g/glucose, a Residual glucose concentration [5] of 44.7 g/L and a Butanol concentration [6] of 6.32 g/L. For the same substance, the Butanol productivity [6] was 0.07 g butanol/L-h, the Butanol yield [6] was 0.11 g butanol/g/glucose and the Residual glucose concentration [6] was 39.1 g/L. The Butanol concentration [7] was 2.65 g/L, the Butanol productivity [7] was 0.03 g butanol/L-h and the Butanol yield [7] was 0.05 g butanol/g/glucose. It also gave a Residual glucose concentration [7] of 44.1 g/L, a Butanol concentration [8] of 6.86 g/L and a Butanol productivity [8] of 0.07 g butanol/L-h. The Butanol yield [8] was 0.12 g butanol/g/glucose, the Residual glucose concentration [8] was 0.1 g/L and the Butanol concentration [9] was 5.33 g/L. For the same substance, the Butanol productivity [9] was 0.06 g butanol/L-h, the Butanol yield [9] was 0.09 g butanol/g/glucose and the Residual glucose concentration [9] was 16.0 g/L. For the same substance, the Butanol (25 nM, transfer 1) was 1.21 g/L, the Butanol productivity [10] was 0.01 g butanol/L-h and the Butanol yield [10] was 0.02 g butanol/g/glucose. For the same substance, the Residual glucose concentration [10] was 45.3 g/L, the Butanol (25 nM, transfer 4) was 11.87 g/L and the Butanol productivity [11] was 0.12 g butanol/L-h. For the same substance, the Butanol yield [11] was 0.20 g butanol/g/glucose, the Residual glucose concentration [11] was 0.1 g/L and the Butanol (25 nM, transfer 7) was 9.09 g/L. The Butanol productivity [12] was 0.09 g butanol/L-h, the Butanol yield [12] was 0.15 g butanol/g/glucose and the Residual glucose concentration [12] was 0.1 g/L. It also gave a Butanol (25 nM, transfer 10) of 12.83 g/L, a Butanol productivity [13] of 0.13 g butanol/L-h and a Butanol yield [13] of 0.22 g butanol/g/glucose. It also gave a Residual glucose concentration [13] of 0.1 g/L, a Butanol (25 nM, transfer 13) of 9.97 g/L and a Butanol productivity [14] of 0.10 g butanol/L-h. It also gave a Butanol yield [14] of 0.17 g butanol/g/glucose, a Residual glucose concentration [14] of 0.1 g/L and a Butanol (25 nM, transfer 16) of 11.66 g/L. The Butanol productivity [15] was 0.12 g butanol/L-h, the Butanol yield [15] was 0.20 g butanol/g/glucose and the Residual glucose concentration [15] was 0.1 g/L.
